# Article PMC11768359, “2-Aminothiophene Derivatives—New Drug Candidates Against Leishmaniasis: Drug Design, Synthesis, Pharmacomodulation, and Antileishmanial Activity” (Pharmaceuticals, 2025)
# Several values for one entry are separate records, joined by “and”; a condition that tells them apart may be missing. Identical values can stand only once. Like-named read-outs stand apart in the source and are kept apart here.
# Tests used:
# [1] = tested on: axenic amastigotes of L. amazonensis; settings: cited from earlier work; for IC50: read-out: IC50 Amastigotes
# [2] = tested on: promastigotes of L. amazonensis; settings: L. amazonensis promastigotes, cited from earlier work
# [3] = tested on: promastigotes of L. amazonensis; test: Growth inhibition of promastigote forms of L. amazonensis (MTT); assay type: cell-based, Leishmania amazonensis; settings: 72 h, 26 °C
# Procedure: (§1) The in vitro tests utilized Leishmania amazonensis parasites (IFLA/BR/67/PH8). These leishmania cell lines were obtained from Oswaldo Cruz Foundation (FIOCRUZ)/Brazil. The promastigote forms were cultivated in Schneider’s insect medium at 26 °C in a biological oxygen demand (BOD) incubator. Schneider’s insect medium was supplemented with 20% fetal bovine serum (FBS) and 1% penicillin (100 U/mL) and streptomycin (µg/mL) (complete Schneider). Next, we differentiated them from promastigote forms by changing the conditions to Schneider’s insect medium supplemented with 5% FBS, pH 4.6, and a temperature of 32 °C to obtain axenic amastigote forms of L. amazonensis. Meanwhile, RAW 264.7 macrophages were cultured in […] cell culture flasks using DMEM medium supplemented with 10% FBS, 1% penicillin 100 U/mL, and 100 μg/mL streptomycin (complete DMEM) and incubated at 37 °C and 5% CO2.
# (§2) Parasite growth inhibition was evaluated using the methodology described by Rodrigues et al. (2015). Cultures of logarithmically growing promastigote and axenic amastigote forms (1 × 10^6 parasites/mL) were incubated in 96-well plates containing 100 µL of supplemented Schneider’s medium in triplicate. Serial concentrations of 2-amino-thiophene and 2-amino-selenophene derivatives (10.00–0.156 μM) and the reference drugs meglumine antimoniate (500–40,000 μg/mL), amphoterecinB (0.1–2 μM), and pentamidine (3.12–100 µM) were added. BNP was used as a negative control. The cultures were incubated in a biological oxygen demand oven (model Eletrolab EL202, São Paulo, Brazil) at 26 °C for promastigotes and 32 °C for axenic amastigotes for 72 h. Then, 10 μL of MTT (5 mg/mL) was added to each well to colorimetrically evaluate growth inhibition. The plate was subsequently incubated for a further 4 h, followed by adding 50 μL of 10% sodium dodecyl sulfate solution for […] before the optical density of the culture was read on a microplate spectrophotometer reader. The reading was taken at the test and reference wavelengths of 540 and 620 nm using a microplate spectrophotometer. The negative control consisted of 0.2% […] with BNP, considered to be 100% viable.
# [4] = tested on: axenic amastigotes of L. amazonensis; test: Growth inhibition of axenic amastigote forms of L. amazonensis (MTT); assay type: cell-based, Leishmania amazonensis; settings: Leishmania amazonensis, 72 h, 32 °C
# Procedure: as §1, §2
# [5] = Cytotoxicity in macrophages (MTT); assay type: cell-based; settings: mouse, RAW 264.7 macrophages
# Procedure: as §1
# First, 100 μL DMEM medium complete with 1 × 10^6 macrophages (RAW 264.7) was added to each well of a 96-well plate. RAW 264.7 macrophages were obtain from ATCC: code TIB-71^TM. The plate was placed in an incubator (37 °C, 5% CO2) (Sanyo, model COM-15A, Sanyo Electric Co., Osaka, Japan) for 4 h to promote cell adhesion. After this period, two washes were conducted with previously heated DMEM medium (37 °C) to remove non-adhered cells. 2-amino-thiophene and 2-amino-selenophene derivatives were added to wells at serial concentrations of 400 to 25 µM and then incubated for 48 h. Next, 10 μL of MTT at a […] of 5 mg/mL were added to each well and incubated for 4 h. The plate was then shaken for 30 min and read at the test and reference wavelengths of 550 and 620 nm, respectively, in a plate reader. DMEM medium supplemented with 0.5% DMSO was used as a negative control and considered as 100% macrophage viability. The selectivity index for each treatment was calculated as the ratio between the concentration of cytotoxicity of RAW 264.7 macrophages (CC50) and the 50% inhibitory concentration (IC50) or effective concentration (EC50), as measured for the different evolutionary forms of L. amazonensis.
# [6] = tested on: RAW 264.7 macrophages; settings: previously published; cited from earlier work
# [7] = L. amazonensis axenic amastigotes, previously published
# [8] = previously published, read-out: IC50 Promastigotes
structure (smiles),measurement,setting,value
N#Cc1c(/N=C/c2c[nH]c3ccc(Br)cc23)sc2c1CCC2 [Compound 25],IC50 Amastigotes,[1]; [7],inactive against the two evolutionary forms
same,IC50,[1]; [7],> 10 µM
same,IC50 Promastigotes,[2]; previously published,inactive against the two evolutionary forms
same,IC50,[2]; [8],> 10 µM
N#Cc1c(/N=C/c2c[nH]c3ccccc23)[se]c2c1CCCC2 [Compound 32],IC50 Promastigotes,[3],not active up to the highest concentration evaluated
same,IC50,[3]; Leishmania amazonensis,> 10 µM
COc1ccc2[nH]cc(/C=N/c3[se]c4c(c3C#N)CCCC4)c2c1 [Compound 40],IC50 Promastigotes,[3],not active up to the highest concentration evaluated
same,IC50,[3]; Leishmania amazonensis,> 10 µM
CC(C)(C)OC(=O)c1c(N)sc2c1CCN(C(=O)OC(C)(C)C)C2 [Compound 22],IC50,[3]; Leishmania amazonensis,6.52 µM
same,IC50,[4],8.35 µM
same,CC50 at 48 h,[5],195 µM
"CC(C)(C)OC(=O)N1CCc2c(sc(N)c2C#N)C1 [Compound 17, 2-Amino-6-N-Boc-Piperidine[b]Thiophene-3-Carbonitrile]",IC50,[3]; Leishmania amazonensis,8.61 µM
same,IC50,[4],> 10 µM
CCOC(=O)c1c(N)sc2c1CCCCC2 [Compound 11],IC50,[3]; Leishmania amazonensis,> 10 µM
Cc1cc(C#N)c(N)s1 [Compound 1],IC50,[3]; Leishmania amazonensis,> 10 µM
same,IC50,[4],> 10 µM
N#Cc1ccc2[nH]cc(/C=N/c3[se]c4c(c3C#N)CCCC4)c2c1 [Compound 33],IC50,[3]; Leishmania amazonensis,9.32 µM
same,CC50 at 48 h,[5],203 µM
Cc1cccc2c(/C=N/c3[se]c4c(c3C#N)CCCC4)c[nH]c12 [Compound 36],IC50,[3],2.92 µM
same,IC50,[3]; Leishmania amazonensis,< 3.5 µM
same,CC50 at 48 h,[5],186 µM
CCOC(=O)c1c(N)sc2c1CCN(C(=O)OC(C)(C)C)C2 [Compound 21],IC50,[3]; Leishmania amazonensis,3.1 µM
same,IC50,[4],2.9 µM
same,CC50 at 48 h,[5],221 µM
CC(C)(C)OC(=O)N1CCc2c(sc(/N=C/c3c[nH]c4ccc(Br)cc34)c2C#N)C1 [Compound 31],IC50,[3]; Leishmania amazonensis,> 10 µM
same,IC50,[4],> 10 µM
NC(=O)c1c(N)sc2c1CCCCCC2 [Compound 8],IC50,[3],> 10 µM
same,IC50,[3]; Leishmania amazonensis,≥ 10 µM
same,IC50,[4],> 10 µM
N#Cc1c(N)sc2c1CCN(Cc1ccccc1)C2 [Compound 18],IC50 Promastigotes,[3],inactive compound
same,IC50,[3]; Leishmania amazonensis,> 10 µM
same,IC50,[4],> 10 µM
N#Cc1c(/N=C/c2c[nH]c3ccc(Br)cc23)sc2c1CCCCCC2 [Compound 8CN83],CC50,[6],> 100 µM
same,IC50,[1]; [7],3.8 µM
same,IC50,[2]; [8],4.7 µM and 4.75 µM
N#Cc1c(N)sc2c1CCC2 [Compound 4],IC50,[3]; Leishmania amazonensis,> 10 µM
same,IC50,[4],> 10 µM
"Cc1ccc2[nH]cc(/C=N/c3sc4c(c3C#N)CCCC4)c2c1 [TN6-1, reference compound]",IC50,"[2]; sensitive strain, read-out: IC50 anti-promastigote",7.2 µM
N#Cc1c(N)sc2c1CCCC2 [Compound 5],IC50,[2]; [8],> 10 µM
CCOC(=O)c1c(N)sc2c1CCCC2 [Compound 10],IC50,[3]; Leishmania amazonensis,> 10 µM
"N=C(N)c1ccc(OCCCCCOc2ccc(C(=N)N)cc2)cc1 [Pentamidine, reference compound]",IC50,[3]; Leishmania amazonensis,42.3 µM
same,CC50 at 48 h,[5],294 µM
CCC1CCc2c(sc(N)c2C#N)C1 (centres unmarked) [Compound 14],IC50,[3]; Leishmania amazonensis,> 10 µM
same,IC50,[4],> 10 µM
N#Cc1c(/N=C/c2c[nH]c3ccc(Br)cc23)sc2c1CCCCC2 [SB-200],CC50,[6],32 µM
same,IC50,"[1]; L. amazonensis amastigotes, previously published",20 µM and 20.1 µM
same,EC50,"[1]; L. amazonensis amastigotes, read-out: EC50 against amastigotes",20.1 µM
same,IC50,[2]; [8],3.6 µM and 3.65 µM
NC(=O)c1ccsc1N [Compound 2],IC50,[3],> 10 µM
same,IC50,[3]; Leishmania amazonensis,≥ 10 µM
same,IC50,[4],> 10 µM
N#Cc1c(N)sc2c1CCCCC2 [Compound 7CN],CC50,[6],99.5 µM
same,IC50,[1]; [7],2.7 µM and 2.79 µM
same,IC50,[2]; [8],3.2 µM and 3.14 µM
N#Cc1c(N)sc2c1CCCCCC2 [Compound 8CN],CC50,[6],43.9 µM
same,IC50,[2]; [8],1.2 µM
